The values below come from ChEMBL document CHEMBL4483862, “Open-source discovery of chemical leads for next-generation chemoprotective antimalarials” (2018).

In the assay the test system is Plasmodium berghei. Nature of the assay: Luciferase/luciferin-expressing antifolate-resistant parasites were used to infect a culture of HepG2 cells that were pre-incubated with compounds. Infected hepatocytes emit light due to the luciferase reaction. Assay results are presented as the percent inhibition of light emission compared to control. […]. The class given is functional. Particulars: sporozoite; for IC90: read-out: LUCIFERASE INFECTION ASSAY - IC90.

Where [1] appears, read: read-out: LUCIFERASE INFECTION ASSAY - IC50.

As a reminder, the IC50 is the concentration needed to halve the response being measured. In general, IC90 refers to the concentration needed for an effect of 90%. Regarding `O=C(NNC(=O)c1cccn1-c1ccc(F)cc1)Nc1ccc(Cl)c(Cl)c1`, the IC90 stood at 7.62 µM. For the same molecule, for the setting “PBLUC_HILL_SLOPE 3.35, PBLUC_R_SQUARED 0.178, read-out: LUCIFERASE INFECTION ASSAY - IC50”, the IC50 amounted to 3.96 µM.

As for `N#Cc1ccc(C(=O)Nc2nc3ccc(SC(F)F)cc3s2)cc1`, the IC90 was 3.39 µM. For the same molecule, the IC50 (HEPG2TOX_HILL_SLOPE 1.69, HEPG2TOX_R_SQUARED 0.978, PBLUC_HILL_SLOPE 16.3, PBLUC_R_SQUARED 0.469, read-out: LUCIFERASE INFECTION ASSAY - IC50) was found to be 2.96 µM.

As to `Cc1cc(NCc2cccnc2)n2nc(C(F)(F)F)c(-c3ccccc3)c2n1`, the IC90 was greater than 8.61 µM. Also, under setting [1], the IC50 is 7.83 µM.

On to `COc1ncccc1C(=O)Nc1cc(Cl)cc(Cl)c1`, for which the IC90 was determined as 3.83 µM. For the same molecule, the IC50 (PBLUC_HILL_SLOPE 56, PBLUC_R_SQUARED 0.566, read-out: LUCIFERASE INFECTION ASSAY - IC50) was 3.68 µM.

With `CC1CCN(C(=O)CSC(F)(F)F)CC1`, the IC90 was greater than 10 µM. Moreover, the IC50 under setting [1] was greater than 10 µM.

Regarding `CSc1sc(-c2ccon2)c(-c2cccs2)c1C#N`, the IC90 is greater than 10.8 µM. In addition, the IC50 under setting [1] is greater than 10.8 µM.

Take `NC(Cc1ccccc1)c1csc(Nc2nncc3ccccc23)n1` (stereo unspecified): the IC90 was 3.88 µM. Also, the IC50 (HEPG2TOX_HILL_SLOPE 16.4, HEPG2TOX_R_SQUARED 0.287, PBLUC_HILL_SLOPE 15.9, PBLUC_R_SQUARED 0.415, read-out: LUCIFERASE INFECTION ASSAY - IC50) came to 3.38 µM.

On to `O=C1c2cccc3c([N+](=O)[O-])ccc(c23)C(=O)N1Cc1cccnc1`, for which the IC90 was greater than 9.9 µM. Under setting [1], the IC50 was greater than 9.9 µM.

`O=C(Nc1ccc(OC(F)F)c(Cc2ccccc2)c1)c1ccc(-n2ccnc2)nc1`: the IC90 was greater than 10 µM. Where the note is “PBLUC_HILL_SLOPE 6.37, PBLUC_R_SQUARED 0.721, read-out: LUCIFERASE INFECTION ASSAY - IC50”, the IC50 was 8.94 µM.

For `CCC(C)NC(=O)c1c(NC(=O)c2cccc(OC)c2)nc2ccc(C)cn12` (stereo unspecified), the IC90 was greater than 8.67 µM. Under “FFLUC_HILL_SLOPE 19.6, FFLUC_R_SQUARED 0.348, HEPG2TOX_HILL_SLOPE 6.15, HEPG2TOX_R_SQUARED 0.729, PBLUC_HILL_SLOPE 3.4, PBLUC_R_SQUARED 0.659, read-out: LUCIFERASE INFECTION ASSAY - IC50”, the IC50 turned out to be 5.09 µM.

`O=C(/C=C/c1ccc([N+](=O)[O-])cc1)NCC(=O)N1CCN(S(=O)(=O)c2ccc(Cl)cc2)CC1`: the IC90 came to 0.04 µM. Further, for the setting “HEPG2TOX_HILL_SLOPE 0.532, HEPG2TOX_R_SQUARED 0.824, PBLUC_HILL_SLOPE 10.3, PBLUC_R_SQUARED 0.421, read-out: LUCIFERASE INFECTION ASSAY - IC50”, the IC50 stood at 0.0324 µM.

Take `O=C(Nc1ccc(Cl)cc1)n1ncc(Sc2ccc(Cl)cc2)c1-c1ccc(Cl)cc1`: the IC90 was greater than 6.95 µM. Also, the IC50 under setting [1] is greater than 6.95 µM.

Consider `CCN1C/C(=C/c2ccc(OC)c(O)c2)C(=O)/C(=C/c2ccc(OC)c(O)c2)C1`, for which the IC90 was found to be 4.05 µM. For the same molecule, under “HEPG2TOX_HILL_SLOPE 4, HEPG2TOX_R_SQUARED 0.984, PBLUC_HILL_SLOPE 15.6, PBLUC_R_SQUARED 0.475, read-out: LUCIFERASE INFECTION ASSAY - IC50”, the IC50 is 3.52 µM.

For the molecule `CCOC(=O)NNC(=S)Nc1ccccc1OC`, the IC90 was greater than 12.3 µM. Further, the half-inhibitory concentration (IC50) under setting [1] is greater than 12.3 µM.

Take `CCc1ccc(NC(=O)C[n+]2c3n(c4c(F)c(F)ccc42)CCCCC3)cc1`: the IC90 worked out at 9.39 µM. The concentration for half-maximal inhibition (IC50) (HEPG2TOX_HILL_SLOPE 3.71, HEPG2TOX_R_SQUARED 0.507, PBLUC_HILL_SLOPE 2.96, PBLUC_R_SQUARED 0.697, read-out: LUCIFERASE INFECTION ASSAY - IC50) was determined as 4.47 µM.

For `CN(C)CCCOc1ccc(-c2nnc3ccc(-c4cccc(Cl)c4)cn23)cc1`, the IC90 is greater than 10 µM. Besides, the IC50 (HEPG2TOX_HILL_SLOPE 9.26, HEPG2TOX_R_SQUARED 0.159, PBLUC_HILL_SLOPE 2.15, PBLUC_R_SQUARED 0.0523, read-out: LUCIFERASE INFECTION ASSAY - IC50) worked out at 7.9 µM.

In the case of `CCCCCn1c(SCC(=O)Nc2ccc(C(C)C)cc2)n[nH]c1=O`, the IC90 amounted to 3.43 µM. Besides, where the note is “HEPG2TOX_HILL_SLOPE 1.82, HEPG2TOX_R_SQUARED 0.814, PBLUC_HILL_SLOPE 12.7, PBLUC_R_SQUARED 0.412, read-out: LUCIFERASE INFECTION ASSAY - IC50”, the IC50 was 2.89 µM.

`CNc1nc2cnc(Nc3ccc(F)c(Cl)c3)cc2n1-c1cccc(C(F)(F)F)c1`: the IC90 was greater than 10 µM. Also, under setting [1], the IC50 is greater than 10 µM.

With `O=C(NNC(=S)Nc1cccc(C(F)(F)F)c1)c1[nH]c2ccccc2c1-c1ccccc1`, the IC90 was 2.73 µM. Also, under “HEPG2TOX_HILL_SLOPE 2.69, HEPG2TOX_R_SQUARED 0.963, PBLUC_HILL_SLOPE 11.7, PBLUC_R_SQUARED 0.673, read-out: LUCIFERASE INFECTION ASSAY - IC50”, the IC50 worked out at 2.27 µM.

For the molecule `C#CCSc1nnc(-c2ccc(C(C)(C)C)cc2)n1C`, the IC90 was 5.91 µM. Further, where the note is “PBLUC_HILL_SLOPE 2.86, PBLUC_R_SQUARED 0.337, read-out: LUCIFERASE INFECTION ASSAY - IC50”, the IC50 was 2.74 µM.

On to `N#Cc1c(N=Cc2c(O)n(-c3ccc(Br)cn3)c(=O)c3ccccc23)sc2c1CCC2`, for which the IC90 was greater than 10 µM. For the same molecule, the IC50 (HEPG2TOX_HILL_SLOPE 5.03, HEPG2TOX_R_SQUARED 0.905, PBLUC_HILL_SLOPE 1.74, PBLUC_R_SQUARED 0.542, read-out: LUCIFERASE INFECTION ASSAY - IC50) came out at 6.14 µM.

Turning to `CC(C)(C)c1ccc(-c2nnc(SCC(=O)N3CCc4ccccc4C3)n2Cc2ccccc2)cc1`, the 90% effect concentration (IC90) is greater than 10 µM. Besides, the IC50 under setting [1] is greater than 10 µM.

For the molecule `O=C(CN1CCC(n2c(=O)[nH]c3ccccc32)CC1)NCCC1=CCCCC1`, the IC90 is greater than 10 µM. Besides, the IC50 under setting [1] was greater than 10 µM.

Consider `CC(=O)NCCc1ccc(C(=O)CSc2nccn2-c2ccc(Cl)cc2)s1`, for which the IC90 is greater than 10 µM. The IC50 under setting [1] was greater than 10 µM.

With `CCCN1CCN(C(=O)c2ccc(-c3ccc(C(C)=O)cc3)o2)CC1`, the IC90 was greater than 10 µM. Further, the IC50 (PBLUC_HILL_SLOPE 0.574, PBLUC_R_SQUARED 0.0124, read-out: LUCIFERASE INFECTION ASSAY - IC50) is greater than 10 µM.

Regarding `O=C(Nc1ccccc1)Nc1cncc(C#Cc2ccccc2)c1`, the IC90 was found to be 10.2 µM. Under “PBLUC_HILL_SLOPE 6.32, PBLUC_R_SQUARED 0.624, read-out: LUCIFERASE INFECTION ASSAY - IC50”, the IC50 was 7.23 µM.

For `Fc1ccccc1COc1ccccc1CNCc1cccnc1`, the IC90 was greater than 10.2 µM. Moreover, the IC50 under setting [1] is greater than 10.2 µM.

In the case of `CC(=O)c1ccc(NC(=O)c2nn(-c3ccccc3)c3c2C2CCC3(C)C2(C)C)cc1` (stereo unspecified), the concentration for an effect of 90% (IC90) is greater than 10 µM. The IC50 (FFLUC_HILL_SLOPE 16.9, FFLUC_R_SQUARED 0.354, read-out: LUCIFERASE INFECTION ASSAY - IC50) was greater than 10 µM.

On to `CCNC(=O)C(C)NC(=O)c1cc(-c2ccccc2)nc2c1cnn2Cc1ccccc1Cl` (stereo unspecified), for which the 90% effect concentration (IC90) worked out at 0.0487 µM. Also, for the setting “PBLUC_HILL_SLOPE 3.93, PBLUC_R_SQUARED 0.959, read-out: LUCIFERASE INFECTION ASSAY - IC50”, the IC50 stood at 0.0279 µM.

In the case of `O=C1NC(c2ccc(N3CCCCC3)cc2)Nc2ccccc21` (stereo unspecified), the IC90 was 0.743 µM. In addition, the IC50 under setting [1] amounted to 0.0973 µM.

With `Cc1cc(C(=O)COC(=O)c2ccc[nH]c2=O)c(C)n1CC1CCCO1` (stereo unspecified), the IC90 is greater than 10 µM. Moreover, where the note is “FFLUC_HILL_SLOPE 9.51, FFLUC_R_SQUARED 0.378, PBLUC_HILL_SLOPE 2.55, PBLUC_R_SQUARED 0.111, read-out: LUCIFERASE INFECTION ASSAY - IC50”, the IC50 turned out to be 6.62 µM.

`O=C(C1CCCN(C2=NS(=O)(=O)c3ccccc32)C1)N1CCOCC1` (stereo unspecified): the IC90 was greater than 10 µM. In addition, the IC50 under setting [1] was greater than 10 µM.

For the molecule `COc1ccc(C2=NN(c3ccccc3)C(c3cn(-c4ccccc4)nc3-c3cccnc3)C2)cc1` (stereo unspecified), the IC90 is 9.32 µM. In addition, the IC50 (PBLUC_HILL_SLOPE 3.03, PBLUC_R_SQUARED 0.661, read-out: LUCIFERASE INFECTION ASSAY - IC50) turned out to be 4.51 µM.

With `O=C(Nc1ccc(OC(F)(F)F)cc1)c1ccc(=O)n(Cc2ccc(Cl)cc2)c1`, the concentration for an effect of 90% (IC90) was greater than 7.81 µM. Where the note is “PBLUC_HILL_SLOPE 1.46, PBLUC_R_SQUARED 0.0131, read-out: LUCIFERASE INFECTION ASSAY - IC50”, the IC50 was determined as 7.46 µM.

On to `C#CCSc1nnc(-c2ccc(C(C)(C)C)cc2)n1-c1ccc(C(C)C)cc1`, for which the IC90 was greater than 8.47 µM. Moreover, the IC50 (PBLUC_HILL_SLOPE 0.5, PBLUC_R_SQUARED 0.648, read-out: LUCIFERASE INFECTION ASSAY - IC50) is greater than 8.47 µM.

Consider `O=C1Nc2ccc([N+](=O)[O-])cc2/C1=N/NC(=S)NC1CCCCC1`, for which the IC90 was 3.82 µM. For the same molecule, the IC50 (HEPG2TOX_HILL_SLOPE 8.71, HEPG2TOX_R_SQUARED 0.815, PBLUC_HILL_SLOPE 16.7, PBLUC_R_SQUARED 0.29, read-out: LUCIFERASE INFECTION ASSAY - IC50) was determined as 3.35 µM.

Regarding `CCOC(=O)c1oc2ccccc2c1CSc1nc2ccccc2c(=O)n1Cc1ccccc1`, the IC90 was determined as 4.13 µM. The IC50 (FFLUC_HILL_SLOPE 1.98, FFLUC_R_SQUARED 0.579, HEPG2TOX_HILL_SLOPE 1.74, HEPG2TOX_R_SQUARED 0.914, PBLUC_HILL_SLOPE 15.9, PBLUC_R_SQUARED 0.125, read-out: LUCIFERASE INFECTION ASSAY - IC50) was 3.6 µM.

On to `CC(C)c1cc(C(=O)Nc2nnc3ccccn23)c2cnn(C(C)C)c2n1`, for which the IC90 came to 4.31 µM. Besides, where the note is “HEPG2TOX_HILL_SLOPE 0.96, HEPG2TOX_R_SQUARED 0.828, PBLUC_HILL_SLOPE 9.22, PBLUC_R_SQUARED 0.235, read-out: LUCIFERASE INFECTION ASSAY - IC50”, the IC50 came out at 3.4 µM.
